Test results as given in patent US10772327B2, “Herbicide composition containing isopropylamine caprylate” (HUNAN AGRICULTURAL BIOTECHNOLOGY RESEARCH INSTITUTE, priority 2018, dated 2020).

Columns and labels:
Test in all cases: Indoor test for herbicidal activity, stem and leaf spray on potted weeds
Details in all cases: Day 7, fresh weight of above-ground portion
Echinochloa crusgalli = test system: Echinochloa crusgalli
Ludwigia prostrata = test system: Ludwigia prostrata
Poa annua = type: in vivo
Xanthium sibiricum = type: in vivo
Cardamine hirsuta = type: in vivo
Myosoton aquaticum = type: in vivo
Eleocharis yokoscensis = type: in vivo
Conyza candesis = type: in vivo
Beckmannia syzigachne = type: in vivo
Veronica persica = type: in vivo
Stellaria media = type: in vivo
[1] = listed as glyphosate isopropylamine
[2] = listed as glyphosate isopropylamine salt
[3] = listed as isopropylamine caprylate

## CCCCCCCC(=O)O [Caprylic acid]
Echinochloa crusgalli
  ED50 (95% confidence interval of ED50): 14.07 (13.66-14.48) mg/mL
  ED90 (95% confidence interval of ED90): 108.65 (92.83-124.80) mg/mL
Echinochloa crusgalli; listed as caprylic acid
  ED50 (95% confidence interval of ED50): 14.07 mg/mL
Ludwigia prostrata
  ED50 (95% confidence interval of ED50): 12.52 (10.66-14.43) mg/mL
  ED90 (95% confidence interval of ED90): 96.04 (85.15-108.33) mg/mL
Ludwigia prostrata; listed as caprylic acid
  ED50 (95% confidence interval of ED50): 12.52 mg/mL

## CC(C)N.O=C(O)CNCP(=O)(O)O [Glyphosate isopropylamine]
Echinochloa crusgalli
  ED50 (95% confidence interval of ED50): 52.18 (40.13-65.02) mg/mL
  ED90 (95% confidence interval of ED90): 384.59 (360.35-420.77) mg/mL
Echinochloa crusgalli; [1]
  ED50 (95% confidence interval of ED50): 52.18 mg/mL
Echinochloa crusgalli; [2]
  ED50 (95% confidence interval of ED50): 52.18 mg/mL
Ludwigia prostrata
  ED50 (95% confidence interval of ED50): 46.79 (41.87-52.27) mg/mL
  ED90 (95% confidence interval of ED90): 321.75 (271.72-380.99) mg/mL
Ludwigia prostrata; [1]
  ED50 (95% confidence interval of ED50): 46.79 mg/mL
Ludwigia prostrata; [2]
  ED50 (95% confidence interval of ED50): 46.79 mg/mL

## CCCCCCCC(=O)O [Isopropylamine caprylate, isopropylamine caprylate]
Poa annua
  ED50 (95% confidence interval of ED50): 3.07 (2.66-10.48) mg/mL
  ED90 (95% confidence interval of ED90): 28.65 (22.83-40.82) mg/mL
Xanthium sibiricum
  ED50 (95% confidence interval of ED50): 0.64 (0.22-1.03) mg/mL
  ED90 (95% confidence interval of ED90): 19.11 (10.80-31.14) mg/mL
Cardamine hirsuta
  ED50 (95% confidence interval of ED50): 0.90 (0.11-2.46) mg/mL
  ED90 (95% confidence interval of ED90): 18.36 (10.74-35.88) mg/mL
Myosoton aquaticum
  ED50 (95% confidence interval of ED50): 0.18 (0.04-0.25) mg/mL
  ED90 (95% confidence interval of ED90): 16.47 (8.35-20.23) mg/mL
Eleocharis yokoscensis
  ED50 (95% confidence interval of ED50): 3.23 (2.00-9.55) mg/mL
  ED90 (95% confidence interval of ED90): 24.11 (18.74-40.82) mg/mL
Conyza candesis
  ED50 (95% confidence interval of ED50): 0.74 (0.25-1.05) mg/mL
  ED90 (95% confidence interval of ED90): 15.54 (8.74-20.93) mg/mL
Echinochloa crusgalli
  ED50 (95% confidence interval of ED50): 4.07 (2.66-10.48) mg/mL
  ED90 (95% confidence interval of ED90): 28.65 (22.83-40.82) mg/mL
Echinochloa crusgalli; [3]
  ED50 (95% confidence interval of ED50): 4.07 mg/mL
Ludwigia prostrata
  ED50 (95% confidence interval of ED50): 0.52 (0.35-0.61) mg/mL
  ED90 (95% confidence interval of ED90): 13.21 (9.17-18.31) mg/mL
Ludwigia prostrata; [3]
  ED50 (95% confidence interval of ED50): 0.52 mg/mL
Beckmannia syzigachne
  ED50 (95% confidence interval of ED50): 3.07 (1.66-8.48) mg/mL
  ED90 (95% confidence interval of ED90): 30.65 (24.12-44.50) mg/mL
Veronica persica
  ED50 (95% confidence interval of ED50): 0.78 (0.28-2.35) mg/mL
  ED90 (95% confidence interval of ED90): 9.16 (5.09-22.65) mg/mL
Stellaria media
  ED50 (95% confidence interval of ED50): 0.80 (0.47-1.77) mg/mL
  ED90 (95% confidence interval of ED90): 16.69 (7.91-26.98) mg/mL
